Assay results taken from patent publication US12145913B2, “Inhibition of Olig2 activity” (Curtana Pharmaceuticals, Inc., priority 2016, dated 2024).

System: GBM8 human glioblastoma cells
Assay: GBM8 viability assay (Cell Titer Glo)
Assay type: cell-based
Settings: 72 h, luminescence
Description: Cell culture medium was prepared from a NSA proliferation kit (Neurocult) and NeuroCult supplements (Stemcell Tech Cat. #05751) and treated with 20 μL of 10 μg/mL rh EGF, 10 μL of 10 μg/mL rh bFGF and 10 μL of 0.2% Heparin. In this medium, human glioblastoma cells were cultured in ultra-low attachment tissue culture flasks until 1×10^6 cells ml was achieved (GBM4 and GBM8 are distinct neurosphere cell cultures derived from these human patient tissues). GBM4 and GBM8 cells were dissociated and 10 mL of media containing 4000 human glioblastoma cells per 90 μL were transferred to an ultra-low binding 96-well plate and incubated at 37° C. overnight. On the following day, 10 μL of a 1% DMSO solution of test compound in assay medium was added to wells containing the cell suspension and the mixture incubated at 37° C. for 3 days. At this time, the plate was removed from the incubator and allowed to reach room temperature. After about 30 minutes, 50 μL of Cell Titer Glo solution was added to each well and the plate shaken for 1 minute at low speed. After 10 minutes luminescence was recorded using a Tecan Safire2 reader.
Reduction in luminescence compared to DMSO only control wells was used to determine the percentage inhibition of cell growth. IC50s were calculated using the % inhibition of luminescence for serial dilutions of compounds fitted to a 4-parameter fit within the Prism (San Diego) curve fitting program. Tables 1 (compounds 3-188) and 2 (compounds 190-212) show the GBM4 IC50 and GBM8 IC50 for compounds described herein.

| IC50 (Table 1, 3 days incubation) | IC50 (Table 2, 3 days incubation) | Compound |
| --- | --- | --- |
| 500 to 5000 nM |  | O=C(Nc1ccc(Cl)c(Cl)c1)Nc1nccc(NO)n1 [Compound 158, 1-(3,4-dichlorophenyl)-3-(4-(hydroxyamino)pyrimidin-2-yl)urea] |
| < 500 nM |  | CNc1cc(C)nc(NC(=O)Nc2ccc3ccccc3c2)n1 [Compound 20] |
| < 500 nM |  | Cc1cc(NCCOCCO)nc(NC(=O)Nc2ccc3ccccc3c2)n1 [Compound 13] |
| < 500 nM |  | Cc1cc(NCCNS(C)(=O)=O)nc(NC(=O)Nc2ccc3ccncc3c2)n1 [Compound 120, N-(2-((2-(3-(isoquinolin-7-yl)ureido)-6-methylpyrimidin-4-yl)amino)ethyl)methanesulfonamide] |
| 500 to 5000 nM |  | Cc1cc(NCCCN)nc(NC(=O)Nc2cc3ccccc3cn2)n1 [Compound 91, 1-(4-((3-aminopropyl)amino)-6-methylpyrimidin-2-yl)-3-(isoquinolin-3-yl)urea] |
| < 500 nM |  | Cc1cc(NCCNS(C)(=O)=O)nc(NC(=O)Nc2ccc3occc3c2)n1 [Compound 86, N-(2-((2-(3-(benzofuran-5-yl)ureido)-6-methylpyrimidin-4-yl)amino)ethyl)methanesulfonamide] |
| < 500 nM |  | CNC(=O)CNc1cc(C)nc(NC(=O)Nc2ccc3cnccc3c2)n1 [Compound 58] |
| 5000 to 30000 nM |  | Cc1cc(NCCc2ccccn2)nc(NC(=O)Nc2ccc3ccccc3c2)n1 [Compound 15] |
| 500 to 5000 nM |  | Cc1cc(NCCCN(C)C)nc(NC(=O)Nc2cccc(Oc3ccccc3)c2)n1 [Compound 128, 1-(4-((3-(dimethylamino)propyl)amino)-6-methylpyrimidin-2-yl)-3-(3-phenoxyphenyl)urea] |
|  | 500 to 5000 nM | CC(C)c1cc(N)nc(NC(=O)Nc2ccc(OC(F)(F)F)cc2)n1 [Compound 196, 1-(4-amino-6-isopropylpyrimidin-2-yl)-3-(4-(trifluoro-methoxy)phenyl)urea] |
| < 500 nM |  | Cc1cc(NCCCc2ccccn2)nc(NC(=O)Nc2ccc3ccccc3c2)n1 [Compound 16] |
| < 500 nM |  | Cc1cc(NCCNS(C)(=O)=O)nc(NC(=O)Nc2ccc3ncccc3c2)n1 [Compound 111, N-(2-((6-methyl-2-(3-(quinolin-6-yl)ureido)pyrimidin-4-yl)amino)ethyl)methanesulfonamide] |
| 500 to 5000 nM |  | Cc1cc(NCCN(C)C)nc(NC(=O)Nc2ccc3ncccc3c2)n1 [Compound 106, 1-(4-((2-(dimethylamino)ethyl)amino)-6-methylpyrimidin-2-yl)-3-(quinolin-6-yl)urea] |
| < 500 nM |  | CNCCCCNc1cc(C)nc(NC(=O)Nc2ccc3ccccc3c2)n1 [Compound 33, 1-(4-methyl-6-((4-(methylamino)butyl)amino)pyrimidin-2-yl)-3-(naphthalen-2-yl)urea] |
| 500 to 5000 nM |  | CC(C)c1cc(NCCCN(C)C)nc(NC(=O)Nc2ccc3ccccc3c2)n1 [Compound 188, 1-(4-((3-(dimethylamino)propyl)amino)-6-isopropylpyrimidin-2-yl)-3-(naphthalen-2-yl)urea] |
| < 500 nM |  | Cc1cc(NCCCN(C)C)nc(NC(=O)Nc2ccc(OC(F)(F)F)c(Cl)c2)n1 [Compound 149, 1-(3-chloro-4-(trifluoromethoxy)phenyl)-3-(4-((3-(dimethylamino)propyl)amino)-6-methylpyrimidin-2-yl)urea] |
| < 500 nM |  | CC(=O)NCCNc1cc(C)nc(NC(=O)Nc2ccc3occc3c2)n1 [Compound 84, N-(2-((2-(3-(benzofuran-5-yl)ureido)-6-methylpyrimidin-4-yl)amino)ethyl)acetamide] |
| < 500 nM |  | CCCNc1cc(C)nc(NC(=O)Nc2ccc3ccccc3c2)n1 [Compound 12] |
| < 500 nM |  | CC(=O)NCCCNc1cc(C)nc(NC(=O)Nc2ccc3cnccc3c2)n1 [Compound 66, N-(3-((2-(3-(isoquinolin-6-yl)ureido)-6-methylpyrimidin-4-yl)amino)propyl)acetamide] |
| 500 to 5000 nM |  | CNCCCN(C)c1cc(C)nc(NC(=O)Nc2ccc3ccccc3c2)n1 [Compound 9] |
| 500 to 5000 nM |  | Cc1cc(NCCCN)nc(NC(=O)Nc2ccc3cnccc3c2)n1 [Compound 53, 1-(4-((3-aminopropyl)amino)-6-methylpyrimidin-2-yl)-3-(isoquinolin-6-yl)urea] |
| < 500 nM |  | CN(C)CCCNc1ccnc(NC(=O)Nc2ccc3ccccc3c2)n1 [Compound 160, 1-(4-((3-(dimethylamino)propyl)amino)pyrimidin-2-yl)-3-(naphthalen-2-yl)urea] |

| IC50 (Table 1, 3 days incubation) | IC50 (Table 2, 3 days incubation) | Compound |
| --- | --- | --- |
| < 500 nM |  | CCCCNc1cc(C)nc(NC(=O)Nc2ccc3cnccc3c2)n1 [Compound 56] |
| < 500 nM |  | Cc1cc(NCCN(C)C)nc(NC(=O)Nc2ccc3ccccc3c2)n1 [Compound 6] |
|  | 500 to 5000 nM | CNCCCNc1cc(C(C)C)nc(NC(=O)Nc2ccc3ccccc3c2)n1 [Compound 192, 1-(4-isopropyl-6-((3-(methylamino)propyl)amino)pyrimidin-2-yl)-3-(naphthalen-2-yl)urea] |
| 500 to 5000 nM |  | CC(=O)NCCNc1cc(C)nc(NC(=O)Nc2ccc3ncccc3c2)n1 [Compound 110, N-(2-((6-methyl-2-(3-(quinolin-6-yl)ureido)pyrimidin-4-yl)amino)ethyl)acetamide] |
| < 500 nM |  | Cc1cc(NCCN)nc(NC(=O)Nc2ccc3ccccc3c2)n1 [Compound 5, 1-(4-((2-aminoethyl)amino)-6-methylpyrimidin-2-yl)-3-(naphthalen-2-yl)urea] |
| 500 to 5000 nM |  | Cc1cc(NCCNS(C)(=O)=O)nc(NC(=O)Nc2cc3ccccc3cn2)n1 [Compound 93, N-(2-((2-(3-(isoquinolin-3-yl)ureido)-6-methylpyrimidin-4-yl)amino)ethyl)methanesulfonamide] |
| < 500 nM |  | CNc1cc(C)nc(NC(=O)Nc2ccc(OC(F)(F)F)cc2)n1 [Compound 144, 1-(4-methyl-6-(methylamino)pyrimidin-2-yl)-3-(4-(trifluoromethoxy)phenyl)urea] |
| < 500 nM |  | CNC(=O)CCNc1cc(C)nc(NC(=O)Nc2ccc3ccccc3c2)n1 [Compound 43, N-methyl-3-((6-methyl-2-(3-(naphthalen-2-yl)ureido)pyrimidin-4-yl)amino)propanamide] |
| < 500 nM |  | Cc1cc(NCCCN(C)C)nc(NC(=O)Nc2ccc(OC(F)(F)F)c(C)c2)n1 [Compound 153, 1-(4-((3-(dimethylamino)propyl)amino)-6-methylpyrimidin-2-yl)-3-(3-methyl-4-(trifluoromethoxy)phenyl)urea] |
| 500 to 5000 nM |  | Cc1cc(NCCCN)nc(NC(=O)Nc2ccc3ccncc3c2)n1 [Compound 117, 1-(4-((3-aminopropyl)amino)-6-methylpyrimidin-2-yl)-3-(isoquinolin-7-yl)urea] |
| < 500 nM |  | Cc1cc(NO)nc(NC(=O)Nc2ccc3ccccc3c2)n1 [Compound 45, 1-(4-(hydroxyamino)-6-methylpyrimidin-2-yl)-3-(naphthalen-2-yl)urea] |
| < 500 nM |  | CC(=O)NCCNc1cc(C)nc(NC(=O)Nc2ccc3cnccc3c2)n1 [Compound 67, N-(2-((2-(3-(isoquinolin-6-yl)ureido)-6-methylpyrimidin-4-yl)amino)ethyl)acetamide] |
| < 500 nM |  | Cc1cc(NCCCc2ncc[nH]2)nc(NC(=O)Nc2ccc3ccccc3c2)n1 [Compound 23, 1-(4-((3-(1H-imidazol-2-yl)propyl)amino)-6-methylpyrimidin-2-yl)-3-(naphthalen-2-yl)urea] |
| < 500 nM |  | Cc1cc(NCCO)nc(NC(=O)Nc2ccc(OC(F)(F)F)cc2)n1 [Compound 145, 1-(4-((2-hydroxyethyl)amino)-6-methylpyrimidin-2-yl)-3-(4-(trifluoromethoxy)phenyl)urea] |
| 500 to 5000 nM |  | Cc1cc(NCCN(C)C)nc(NC(=O)Nc2ccc3ccncc3c2)n1 [Compound 115, 1-(4-((2-(dimethylamino)ethyl)amino)-6-methylpyrimidin-2-yl)-3-(isoquinolin-7-yl)urea] |
|  | 500 to 5000 nM | O=C(Nc1ccc(Cl)c(Cl)c1)Nc1nc(NO)cc(C2CC2)n1 [Compound 207, 1-(4-cyclopropyl-6-(hydroxyamino)pyrimidin-2-yl)-3-(3,4-dichlorophenyl)urea] |
| < 500 nM |  | Cc1cc(NCCCN)nc(NC(=O)Nc2ccc3occc3c2)n1 [Compound 83, 1-(4-((3-aminopropyl)amino)-6-methylpyrimidin-2-yl)-3-(benzofuran-5-yl)urea] |
| < 500 nM |  | Cc1cc(NCCN)nc(NC(=O)Nc2ccc3occc3c2)n1 [Compound 82, 1-(4-((2-aminoethyl)amino)-6-methylpyrimidin-2-yl)-3-(benzofuran-5-yl)urea] |
| 5000 to 30000 nM |  | Cc1cc(NCCN(C)C)nc(NC(=O)Nc2ccc3ccccc3n2)n1 [Compound 97, 1-(4-((2-(dimethylamino)ethyl)amino)-6-methylpyrimidin-2-yl)-3-(quinolin-2-yl)urea] |
| < 500 nM |  | Cc1cc(NCCCCN)nc(NC(=O)Nc2ccc3ccccc3c2)n1 [Compound 10] |
| 500 to 5000 nM |  | CC(C)c1cc(NO)nc(NC(=O)Nc2ccc(Cl)c(Cl)c2)n1 [Compound 185, 1-(3,4-dichlorophenyl)-3-(4-(hydroxyamino)-6-isopropyl-pyrimidin-2-yl)urea] |
| 500 to 5000 nM |  | Cc1cc(NCCCN(C)C)nc(NC(=O)Nc2cccc(-c3ccccc3)c2)n1 [Compound 131, 1-([1,1′-biphenyl]-3-yl)-3-(4-((3-(dimethylamino)propyl)amino)-6-methylpyrimidin-2-yl)urea] |
